IC50 data for 32 compounds are collected here from patent US10370343B2, “[6,6] Fused bicyclic HDAC8 inhibitors” (FORMA Therapeutics, Inc., priority 2015, dated 2019).

The target of the test is T1, Full length human recombinant HDAC8 protein (Homo sapiens, UniProt Q9BY41).
T1 construct: Full length human recombinant HDAC8 protein was expressed in baculoviral system; made in house
T1 sequence (Q9BY41 1-377): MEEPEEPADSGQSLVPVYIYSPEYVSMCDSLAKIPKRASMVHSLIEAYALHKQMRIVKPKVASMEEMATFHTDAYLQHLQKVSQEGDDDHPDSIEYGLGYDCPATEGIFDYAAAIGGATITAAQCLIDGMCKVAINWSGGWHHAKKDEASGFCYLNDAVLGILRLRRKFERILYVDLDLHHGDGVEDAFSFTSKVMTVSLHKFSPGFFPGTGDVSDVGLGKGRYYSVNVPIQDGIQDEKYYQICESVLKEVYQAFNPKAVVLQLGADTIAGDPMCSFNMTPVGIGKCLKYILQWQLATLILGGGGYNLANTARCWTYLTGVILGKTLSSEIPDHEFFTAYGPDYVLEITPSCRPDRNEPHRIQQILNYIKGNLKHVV
The test can be described thus: In vitro histone deacetylase assay: enzymatic HDAC8 electrophoretic mobility shift assay. In kind it is biochemical. The settings on record: electrophoretic mobility shift assay; enzyme 1 nM; 2 μM fluorescently labeled peptide substrate RHKK(Ac)-NH2; 25° C.; 12 concentrations; read-out: HDAC8 IC50. (A gel shift assay detects complexes by their altered migration in electrophoresis.)

As a reminder, the IC50 is the concentration needed to halve the response being measured. `O=C(NO)c1ccc2c(c1)N(Cc1cccc(Cl)c1)CCO2` [Compound I-123, 4-(3-chlorobenzyl)-N-hydroxy-3,4-dihydro-2H-benzo[b][1,4]oxazine-6-carboxamide]: the IC50 fell in the range of 25 to 100 nM. With `O=C(NO)c1ccc2c(c1)N(Cc1cccc(C(F)(F)F)c1)CCO2` [Compound I-124, N-hydroxy-4-(3-(trifluoromethyl)benzyl)-3,4-dihydro-2H-benzo[b][1,4]oxazine-6-carboxamide], the IC50 was < 25 nM.

For the compound `COc1ccccc1CN1CCOc2ccc(C(=O)NO)cc21` [Compound I-126, N-hydroxy-4-(2-methoxybenzyl)-3,4-dihydro-2H-benzo[b][1,4]oxazine-6-carboxamide], the IC50 was in the range of 100 to 1000 nM.

For `Cc1ccccc1CN1CCOc2ccc(C(=O)NO)cc21` [Compound I-127, N-hydroxy-4-(2-methylbenzyl)-3,4-dihydro-2H-benzo[b][1,4]oxazine-6-carboxamide], the concentration for half-maximal inhibition (IC50) was in the range of 25 to 100 nM. Take `O=C(NO)c1ccc2c(c1)N(Cc1ccccc1Cl)CCO2` [Compound I-128, 4-(2-chlorobenzyl)-N-hydroxy-3,4-dihydro-2H-benzo[b][1,4]oxazine-6-carboxamide]: the IC50 is < 25 nM. For the compound `O=C(NO)c1ccc2c(c1)N(Cc1ccccc1C(F)(F)F)CCO2` [Compound I-129, N-hydroxy-4-(2-(trifluoromethyl)benzyl)-3,4-dihydro-2H-benzo[b][1,4]oxazine-6-carboxamide], the IC50 lay within 100 to 1000 nM.

In the case of `CS(=O)(=O)c1ccccc1CN1CCOc2ccc(C(=O)NO)cc21` [Compound I-130, N-hydroxy-4-(2-(methylsulfonyl)benzyl)-3,4-dihydro-2H-benzo[b][1,4]oxazine-6-carboxamide], the IC50 fell in the range of 100 to 1000 nM. Regarding `O=C(NO)c1ccc2c(c1)N(Cc1ccccc1OC(F)F)CCO2` [Compound I-131, 4-(2-(difluoromethoxy)benzyl)-N-hydroxy-3,4-dihydro-2H-benzo[b][1,4]oxazine-6-carboxamide], the half-maximal inhibitory concentration (IC50) lay in the range of 25 to 100 nM. With `O=C(NO)c1ccc2c(c1)N(Cc1cccc(OC(F)F)c1)CCO2` [Compound I-132, 4-(3-(difluoromethoxy)benzyl)-N-hydroxy-3,4-dihydro-2H-benzo[b][1,4]oxazine-6-carboxamide] the figure was < 25 nM.

In the case of `O=C(NO)c1ccc2c(c1)N(CC1CCCCC1)CCO2` [Compound I-133, 4-(cyclohexylmethyl)-N-hydroxy-3,4-dihydro-2H-benzo[b][1,4]oxazine-6-carboxamide], the half-inhibitory concentration (IC50) fell in the range of 25 to 100 nM.

With `CS(=O)(=O)c1ccc(CN2CCOc3ccc(C(=O)NO)cc32)c(Cl)c1` [Compound I-134, 4-(2-chloro-4-(methylsulfonyl)benzyl)-N-hydroxy-3,4-dihydro-2H-benzo[b][1,4]oxazine-6-carboxamide], the IC50 was < 25 nM. As for `CC(c1ccccc1Cl)N1CCOc2ccc(C(=O)NO)cc21` (centres unmarked) [Compound I-136, 4-(1-(2-chlorophenyl)ethyl)-N-hydroxy-3,4-dihydro-2H-benzo[b][1,4]oxazine-6-carboxamide], the concentration for half-maximal inhibition (IC50) fell in the range of 100 to 1000 nM.

On to `CS(=O)(=O)c1ccc(CN2CCOc3ccc(C(=O)NO)cc32)c(C(F)(F)F)c1` [Compound I-137, N-hydroxy-4-(4-(methylsulfonyl)-2-(trifluoromethyl)benzyl)-3,4-dihydro-2H-benzo[b][1,4]oxazine-6-carboxamide], for which the IC50 was in the range of 25 to 100 nM. Next, `COc1cc(CN2CCOc3ccc(C(=O)NO)cc32)ccc1S(C)(=O)=O` [Compound I-138, N-hydroxy-4-(3-methoxy-4-(methylsulfonyl)benzyl)-3,4-dihydro-2H-benzo[b][1,4]oxazine-6-carboxamide]: 100 to 1000 nM. As to `COc1ccc(CN2CCOc3ccc(C(=O)NO)cc32)cc1S(C)(=O)=O` [Compound I-139, N-hydroxy-4-(4-methoxy-3-(methylsulfonyl)benzyl)-3,4-dihydro-2H-benzo[b][1,4]oxazine-6-carboxamide], the half-inhibitory concentration (IC50) was 25 to 100 nM. Next, `O=C(NO)c1ccc2c(c1)N(C(=O)c1ccccc1)CCO2` [Compound I-140, 4-benzoyl-N-hydroxy-3,4-dihydro-2H-benzo[b][1,4]oxazine-6-carboxamide]: > 1000 nM; `O=C(NO)c1ccc2c(c1)N(Cc1cccc(C(F)(F)F)c1)C(=O)CO2` [Compound I-144, N-hydroxy-3-oxo-4-(3-(trifluoromethyl)benzyl)-3,4-dihydro-2H-benzo[b][1,4]oxazine-6-carboxamide]: < 25 nM; `O=C(NO)c1ccc2c(c1)N(Cc1cccc(OC(F)(F)F)c1)C(=O)CO2` [Compound I-146, N-hydroxy-3-oxo-4-(3-(trifluoromethoxy)benzyl)-3,4-dihydro-2H-benzo[b][1,4]oxazine-6-carboxamide]: < 25 nM. With `Cc1ccccc1CN1C(=O)COc2ccc(C(=O)NO)cc21` [Compound I-148, N-hydroxy-4-(2-methylbenzyl)-3-oxo-3,4-dihydro-2H-benzo[b][1,4]oxazine-6-carboxamide], the IC50 lay in the range of 100 to 1000 nM. In the case of `CC1Oc2ccc(C(=O)NO)cc2N(Cc2ccccc2)C1=O` (centres unmarked) [Compound I-153, 4-benzyl-N-hydroxy-2-methyl-3-oxo-3,4-dihydro-2H-benzo[b][1,4]oxazine-6-carboxamide], the IC50 was in the range of 25 to 100 nM. As to `COc1ccc(CN2c3cc(C(=O)NO)ccc3OCC2C)cc1` (centres unmarked) [Compound I-155, N-hydroxy-4-(4-methoxybenzyl)-3-methyl-3,4-dihydro-2H-benzo[b][1,4]oxazine-6-carboxamide], the IC50 lay within 25 to 100 nM. Take `O=C(NO)c1ccc2c(c1)N(C(=O)N1CC3(CCOCC3)c3ccccc31)CCO2` [Compound I-156, N-hydroxy-4-(2′,3′,5′,6′-tetrahydrospiro[indoline-3,4′-pyran]-1-carbonyl)-3,4-dihydro-2H-benzo[b][1,4]oxazine-6-carboxamide]: the IC50 is > 1000 nM.

In the case of `COc1ccc(CN2C(=O)C3(CCCCC3)Oc3ccc(C(=O)NO)cc32)cc1` [Compound I-158, N-hydroxy-4-(4-methoxybenzyl)-3-oxo-3,4-dihydrospiro[benzo[b][1,4]oxazine-2,1′-cyclohexane]-6-carboxamide], the IC50 is 100 to 1000 nM. `COc1ccc(CN2C(=O)C(C)(C)Oc3ccc(C(=O)NO)cc32)c(Cl)c1` [Compound I-159, 4-(2-chloro-4-methoxybenzyl)-N-hydroxy-2,2-dimethyl-3-oxo-3,4-dihydro-2H-benzo[b][1,4]oxazine-6-carboxamide]: the IC50 was in the range of 25 to 100 nM. On to `Cc1ccc(CN2C(=O)COc3ccc(C(=O)NO)cc32)cc1C` [Compound I-219, 4-(3,4-dimethylbenzyl)-N-hydroxy-3-oxo-3,4-dihydro-2H-benzo[b][1,4]oxazine-6-carboxamide], for which the IC50 was < 25 nM. `O=C(NO)c1ccc2c(c1)N(Cc1ccccc1-c1ccccc1)C(=O)CO2` [Compound I-257, 4-([1,1′-biphenyl]-2-ylmethyl)-N-hydroxy-3-oxo-3,4-dihydro-2H-benzo[b][1,4]oxazine-6-carboxamide]: the IC50 fell in the range of 100 to 1000 nM. With `O=C(NO)c1ccc2c(c1)N(Cc1nc3ccc(Cl)cc3n1CC1CC1)C(=O)CO2` [Compound I-260, 4-((6-chloro-1-(cyclopropylmethyl)-1H-benzo[d]imidazol-2-yl)methyl)-N-hydroxy-3-oxo-3,4-dihydro-2H-benzo[b][1,4]oxazine-6-carboxamide] the figure was 100 to 1000 nM.

In the case of `O=C(NO)c1ccc2c(c1)N(Cc1ccccc1SC(F)(F)F)C(=O)CO2` [Compound I-262, N-hydroxy-3-oxo-4-(2-((trifluoromethyl)thio)benzyl)-3,4-dihydro-2H-benzo[b][1,4]oxazine-6-carboxamide], the IC50 lay within 25 to 100 nM. As to `CCn1c(CN2C(=O)COc3ccc(C(=O)NO)cc32)nc2ccc(Cl)cc21` [Compound I-269, 4-((6-chloro-1-ethyl-1H-benzo[d]imidazol-2-yl)methyl)-N-hydroxy-3-oxo-3,4-dihydro-2H-benzo[b][1,4]oxazine-6-carboxamide], the IC50 was in the range of 100 to 1000 nM. In the case of `O=C(NO)c1ccc2c(c1)N(Cc1nc3ccccc3n1CC1CC1)C(=O)CO2` [Compound I-279, 4-((1-(cyclopropylmethyl)-1H-benzo[d]imidazol-2-yl)methyl)-N-hydroxy-3-oxo-3,4-dihydro-2H-benzo[b][1,4]oxazine-6-carboxamide], the 50% inhibitory concentration (IC50) was 100 to 1000 nM. For `CCCn1c(CN2C(=O)COc3ccc(C(=O)NO)cc32)nc2ccccc21` [Compound I-282, N-hydroxy-3-oxo-4-((1-propyl-1H-benzo[d]imidazol-2-yl)methyl)-3,4-dihydro-2H-benzo[b][1,4]oxazine-6-carboxamide], the IC50 lay in the range of 100 to 1000 nM. With `CCCc1nc(C)sc1CN1C(=O)COc2ccc(C(=O)NO)cc21` [Compound I-283, N-hydroxy-4-((2-methyl-4-propylthiazol-5-yl)methyl)-3-oxo-3,4-dihydro-2H-benzo[b][1,4]oxazine-6-carboxamide] the figure was 100 to 1000 nM.
